# Measured values reported in ChEMBL document CHEMBL1143305, “SAR and biological evaluation of analogues of a small molecule histone deacetylase inhibitor N-(2-aminophenyl)-4-((4-(pyridin-3-yl)pyrimidin-2-ylamino)methyl)benzamide (MGCD0103)” (Bioorg Med Chem Lett, 2009).
# Active and inactive are the calls of the source. The calls are words filed in the database; no cut-off is given here.
# Assays:
# [1] = Tmax in Sprague-Dawley rat at 5 mg/kg, po up to 6 hrs; type: ADME, organism-based; set-up: dose 5 mg/kg, route oral; details: in vivo
# [2] = Oral bioavailability in Sprague-Dawley rat at 5 mg/kg up to 6 hrs; type: ADME, organism-based; details: in vivo
# [3] = Metabolic stability in mouse microsomes assessed as biotransformation rate; type: ADME, Microsome
# [4] = Metabolic stability in rat microsomes assessed as biotransformation rate; type: ADME, Microsome
# [5] = Solubility at pH 1.2; type: physicochemical; details: buffer
# [6] = tested on: HCT-15; assay: Antitumor activity against human HCT15 cells xenografted in mouse at 5 mg/kg, po administered once daily for 12 days relative to control; type: functional
# [7] = tested on: HCT-15; assay: Antitumor activity against human HCT15 cells xenografted in mouse at 10 mg/kg, po administered once daily for 12 days relative to control; type: functional
# [8] = Antitumor activity against human AZ-521 cells xenografted in mouse at 5 mg/kg, po administered once daily for 12 days relative to control; type: functional
# [9] = Antitumor activity against human AZ-521 cells xenografted in mouse at 10 mg/kg, po administered once daily for 12 days relative to control; type: functional
# [10] = tested on: NCI-H460; assay: Antitumor activity against human H460 cells xenografted in mouse at 20 mg/kg, po administered once daily for 12 days relative to control; type: functional
# [11] = tested on: Mus musculus; assay: Toxicity in mouse xenografted with human H460 cells at 5 to 20 mg/kg, po administered once daily for 12 days; type: organism-based; set-up: dose 5-20 mg/kg, route oral; details: in vivo, 288 h
# [12] = tested on: HCT-116; assay: Induction of p21WAF1/CIP1 expression in human HCT116 cells assessed as […] after 16 hrs by luciferase assay; type: functional, cell-based
# [13] = biological target: T1, Histone deacetylase 7 (Homo sapiens, UniProt Q8WUI4); assay: Inhibition of HDAC7
# T1 sequence (Q8WUI4 whole entry): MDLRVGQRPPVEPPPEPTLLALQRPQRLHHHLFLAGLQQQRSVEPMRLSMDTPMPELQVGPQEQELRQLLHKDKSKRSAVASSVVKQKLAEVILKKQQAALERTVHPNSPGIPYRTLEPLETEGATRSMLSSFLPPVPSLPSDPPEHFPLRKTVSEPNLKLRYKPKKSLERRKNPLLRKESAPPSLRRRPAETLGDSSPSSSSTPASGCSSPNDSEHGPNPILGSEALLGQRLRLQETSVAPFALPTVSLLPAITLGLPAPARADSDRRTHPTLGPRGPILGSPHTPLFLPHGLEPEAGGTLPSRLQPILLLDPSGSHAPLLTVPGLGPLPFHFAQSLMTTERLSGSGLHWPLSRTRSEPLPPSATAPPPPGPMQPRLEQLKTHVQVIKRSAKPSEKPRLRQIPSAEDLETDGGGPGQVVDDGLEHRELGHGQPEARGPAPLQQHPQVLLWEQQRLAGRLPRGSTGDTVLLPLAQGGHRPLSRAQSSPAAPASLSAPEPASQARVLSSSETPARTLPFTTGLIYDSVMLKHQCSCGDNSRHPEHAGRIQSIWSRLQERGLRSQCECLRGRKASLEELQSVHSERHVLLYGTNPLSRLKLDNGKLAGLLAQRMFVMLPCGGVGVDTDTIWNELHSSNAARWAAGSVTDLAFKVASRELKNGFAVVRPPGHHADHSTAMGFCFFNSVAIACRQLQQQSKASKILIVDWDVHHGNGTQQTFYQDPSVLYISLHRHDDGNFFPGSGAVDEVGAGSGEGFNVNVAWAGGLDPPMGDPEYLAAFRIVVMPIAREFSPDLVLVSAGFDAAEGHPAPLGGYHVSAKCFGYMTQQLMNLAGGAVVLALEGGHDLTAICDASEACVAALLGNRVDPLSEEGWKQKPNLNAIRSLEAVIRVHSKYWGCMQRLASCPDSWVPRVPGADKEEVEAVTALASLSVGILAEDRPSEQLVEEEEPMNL
# [14] = biological target: Histone deacetylase 2 (Homo sapiens, UniProt Q92769)
# Histone deacetylase 2, sequence (Q92769 whole entry): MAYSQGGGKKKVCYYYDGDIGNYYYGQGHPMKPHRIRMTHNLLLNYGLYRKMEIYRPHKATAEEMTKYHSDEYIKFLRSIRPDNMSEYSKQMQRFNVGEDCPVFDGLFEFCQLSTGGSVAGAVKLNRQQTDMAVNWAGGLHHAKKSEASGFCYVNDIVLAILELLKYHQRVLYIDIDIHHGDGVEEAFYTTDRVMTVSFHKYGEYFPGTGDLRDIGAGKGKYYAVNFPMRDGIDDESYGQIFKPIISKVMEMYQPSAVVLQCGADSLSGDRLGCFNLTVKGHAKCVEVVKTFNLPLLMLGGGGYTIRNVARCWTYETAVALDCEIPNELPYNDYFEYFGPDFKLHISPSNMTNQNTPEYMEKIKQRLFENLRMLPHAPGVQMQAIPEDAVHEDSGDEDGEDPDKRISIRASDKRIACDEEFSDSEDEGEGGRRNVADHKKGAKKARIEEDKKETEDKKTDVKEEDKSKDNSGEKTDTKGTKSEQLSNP
structure (smiles),measurement,setting,value
Nc1ccccc1NC(=O)c1ccc(CNc2nccc(-c3ccn[nH]3)n2)cc1,Tmax,[1],30 min
same,bioavailability,[2],16%
same,Activity,[3],0.054 nmol/mg/min
same,Activity,[4],0.043 nmol/mg/min
same,solubility,[5],> 1000 µg/mL
same,T/C,[6],79%
same,T/C,[7],63%
same,T/C,[8],43%
same,T/C,[9],53%
same,T/C,[10],34%
same,Activity,[11],Non-toxic
same,Activity,[12],inactive
same,IC50,[13],> 20000 nM
same,IC50,[14],140 nM
